In ChEMBL document CHEMBL1201862, “PubChem BioAssay data set” (2004):
Activity calls are given as the source filed them.

How the values were obtained:
[1] = system: HEK293; assay: NOD2 signaling inhibitors in MDP-stimulated cells, cell-based, uHTS, luminescence (AID 2001); type: functional; details: Homo sapiens
[2] = biological target: Nucleotide-binding oligomerization domain-containing protein 2 (Homo sapiens, UniProt Q9HC29); assay: NOD2 signaling inhibitors, cell-based, luminescence, uHTS, HEK293 (AID 1566); type: functional
Chain of Nucleotide-binding oligomerization domain-containing protein 2 (Q9HC29 whole entry, the tested form may be a part): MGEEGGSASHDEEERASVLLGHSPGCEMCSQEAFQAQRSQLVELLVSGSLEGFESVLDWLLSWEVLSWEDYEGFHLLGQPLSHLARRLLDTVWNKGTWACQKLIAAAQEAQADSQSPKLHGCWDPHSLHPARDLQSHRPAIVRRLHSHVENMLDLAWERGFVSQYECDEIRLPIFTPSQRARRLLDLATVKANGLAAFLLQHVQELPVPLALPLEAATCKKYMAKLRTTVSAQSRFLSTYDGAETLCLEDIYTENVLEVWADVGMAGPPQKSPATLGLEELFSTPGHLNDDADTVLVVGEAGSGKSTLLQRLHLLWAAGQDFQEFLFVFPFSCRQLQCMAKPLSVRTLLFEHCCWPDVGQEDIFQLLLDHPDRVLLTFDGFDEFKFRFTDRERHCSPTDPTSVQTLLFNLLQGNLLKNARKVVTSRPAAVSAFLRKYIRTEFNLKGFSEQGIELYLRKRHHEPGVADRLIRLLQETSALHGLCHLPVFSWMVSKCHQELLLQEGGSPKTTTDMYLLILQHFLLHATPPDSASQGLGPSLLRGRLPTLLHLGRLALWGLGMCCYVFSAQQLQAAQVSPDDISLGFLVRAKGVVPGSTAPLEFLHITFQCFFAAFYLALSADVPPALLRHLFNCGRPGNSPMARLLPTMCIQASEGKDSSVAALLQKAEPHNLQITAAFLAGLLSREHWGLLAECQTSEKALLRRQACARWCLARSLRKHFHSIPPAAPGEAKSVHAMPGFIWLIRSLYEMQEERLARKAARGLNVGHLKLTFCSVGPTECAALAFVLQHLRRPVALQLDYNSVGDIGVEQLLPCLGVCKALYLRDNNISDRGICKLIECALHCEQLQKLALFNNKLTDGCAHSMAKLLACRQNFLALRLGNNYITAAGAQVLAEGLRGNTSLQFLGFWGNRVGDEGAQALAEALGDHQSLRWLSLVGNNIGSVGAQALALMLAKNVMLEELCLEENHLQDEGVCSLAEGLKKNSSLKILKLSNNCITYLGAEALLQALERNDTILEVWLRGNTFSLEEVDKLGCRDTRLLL

[3] = system: HEK293; assay: cells; type: functional, cell-based; details: Homo sapiens
[4] = system: HEK293; assay: NOD1 signaling inhibitors, primary screen, cell-based, luminescence, uHTS (AID 1578); type: functional; details: Homo sapiens
[5] = system: HEK293; assay: cells; type: functional, cell-based; details: Homo sapiens; remark: listed apart in the source
[6] = system: HEK293; assay: cells; type: functional, cell-based; details: Homo sapiens; remark: listed apart in the source
[7] = biological target: Cytochrome P450 3A4 (Homo sapiens, UniProt P08684); details: Potency;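 also: confirmatory qHTS run detecting inhibitors and substrates of CYP3A4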
Chain of Cytochrome P450 3A4 (P08684 whole entry): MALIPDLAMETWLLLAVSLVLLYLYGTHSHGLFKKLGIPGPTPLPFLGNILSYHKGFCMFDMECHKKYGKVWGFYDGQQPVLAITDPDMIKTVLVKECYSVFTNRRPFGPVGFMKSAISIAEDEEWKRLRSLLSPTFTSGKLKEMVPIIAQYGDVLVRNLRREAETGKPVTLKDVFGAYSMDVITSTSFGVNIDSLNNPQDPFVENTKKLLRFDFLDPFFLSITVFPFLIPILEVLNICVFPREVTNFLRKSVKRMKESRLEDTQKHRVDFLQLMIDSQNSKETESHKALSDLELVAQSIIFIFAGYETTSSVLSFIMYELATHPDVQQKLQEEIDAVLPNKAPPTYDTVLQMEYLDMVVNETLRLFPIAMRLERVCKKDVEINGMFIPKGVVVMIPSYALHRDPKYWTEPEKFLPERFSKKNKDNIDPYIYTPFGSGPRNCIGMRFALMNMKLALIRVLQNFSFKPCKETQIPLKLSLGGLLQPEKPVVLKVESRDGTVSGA

[8] = biological target: Luciferin 4-monooxygenase (Photinus pyralis, UniProt P08659); assay: Counter Screen for Luciferase-based Assay Positives. [Related pubchem assays: 620, 618, 411 ]
Chain of Luciferin 4-monooxygenase (P08659 whole entry): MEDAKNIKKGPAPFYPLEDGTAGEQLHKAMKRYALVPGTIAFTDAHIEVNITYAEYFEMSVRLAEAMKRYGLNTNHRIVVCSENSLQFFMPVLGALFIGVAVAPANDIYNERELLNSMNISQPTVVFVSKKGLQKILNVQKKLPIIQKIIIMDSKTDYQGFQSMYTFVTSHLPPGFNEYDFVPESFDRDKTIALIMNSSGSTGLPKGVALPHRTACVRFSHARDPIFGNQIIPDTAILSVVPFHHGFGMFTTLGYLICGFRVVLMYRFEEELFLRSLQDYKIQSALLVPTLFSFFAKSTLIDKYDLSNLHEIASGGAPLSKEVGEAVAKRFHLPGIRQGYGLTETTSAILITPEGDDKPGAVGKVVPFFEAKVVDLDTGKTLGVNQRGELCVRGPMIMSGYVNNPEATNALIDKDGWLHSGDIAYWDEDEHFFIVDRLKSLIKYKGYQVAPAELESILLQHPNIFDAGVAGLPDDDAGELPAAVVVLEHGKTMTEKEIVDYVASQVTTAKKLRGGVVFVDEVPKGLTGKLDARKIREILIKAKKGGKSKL

[9] = system: HT-1080; assay: cytotoxicity in HT1080 fibrosarcoma cells, cell-based, fluorescence readout (AID 620); type: functional; details: Homo sapiens
[10] = HEp-2 cell cytotoxicity, dose response, cytotoxicity control for RSV inhibitor project, HTS (AID 2410); type: functional; details: human respiratory syncytial virus
[11] = cells
[12] = cytotoxicity in HEK-293T cells, dose response, cytotoxicity control for BCR NF-kB inhibitor project, luminescence, B-cell screen hits (AID 489021); type: functional, cell-based;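 also: HEK-293T cells carrying an NF-kB luciferase reporter; cells exposed to compound for about 14 hours before viability readout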
[13] = inhibitors of SNCA 5'UTR-driven reporter translation, confirmation, H4 neuroglioma cells, luminescence (AID 1988); type: functional, cell-based
[14] = inhibitors of firefly luciferase expression or activity, dose response, H4 neuroglioma cells, luminescence (AID 1990); type: functional, cell-based
[15] = biological target: Beta-galactosidase (Escherichia coli, UniProt Q8VNN2); type: functional
Chain of Beta-galactosidase (Q8VNN2 whole entry): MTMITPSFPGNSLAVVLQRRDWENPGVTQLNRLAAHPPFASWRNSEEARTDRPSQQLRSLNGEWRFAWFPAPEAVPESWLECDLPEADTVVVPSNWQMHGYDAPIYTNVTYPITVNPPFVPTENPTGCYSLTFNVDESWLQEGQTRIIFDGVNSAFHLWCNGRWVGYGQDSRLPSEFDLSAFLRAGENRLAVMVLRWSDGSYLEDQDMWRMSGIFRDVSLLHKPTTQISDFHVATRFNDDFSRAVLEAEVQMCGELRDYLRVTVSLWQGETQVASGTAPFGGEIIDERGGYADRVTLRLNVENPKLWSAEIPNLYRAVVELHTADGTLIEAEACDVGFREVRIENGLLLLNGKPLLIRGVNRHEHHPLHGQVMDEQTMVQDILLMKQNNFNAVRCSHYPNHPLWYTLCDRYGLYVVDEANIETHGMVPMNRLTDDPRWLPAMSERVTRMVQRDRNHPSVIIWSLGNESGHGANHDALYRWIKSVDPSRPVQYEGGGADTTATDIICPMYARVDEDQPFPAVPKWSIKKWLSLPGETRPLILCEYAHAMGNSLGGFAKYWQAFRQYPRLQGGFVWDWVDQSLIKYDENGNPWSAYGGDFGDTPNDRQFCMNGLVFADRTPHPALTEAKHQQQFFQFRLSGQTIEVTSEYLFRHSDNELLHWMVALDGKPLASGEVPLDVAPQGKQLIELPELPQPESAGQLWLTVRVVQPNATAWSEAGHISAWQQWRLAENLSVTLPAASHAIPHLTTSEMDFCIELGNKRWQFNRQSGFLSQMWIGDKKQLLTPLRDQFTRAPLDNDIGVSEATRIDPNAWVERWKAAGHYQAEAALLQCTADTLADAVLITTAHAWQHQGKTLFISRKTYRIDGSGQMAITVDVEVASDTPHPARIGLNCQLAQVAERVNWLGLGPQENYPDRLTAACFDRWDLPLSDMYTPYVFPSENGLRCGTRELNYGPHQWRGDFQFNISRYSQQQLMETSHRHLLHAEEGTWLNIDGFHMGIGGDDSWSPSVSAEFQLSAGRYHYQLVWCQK

[16] = biological target: T1, Kappa-type opioid receptor (Homo sapiens, UniProt P41145); type: functional
T1 sequence (P41145 whole entry): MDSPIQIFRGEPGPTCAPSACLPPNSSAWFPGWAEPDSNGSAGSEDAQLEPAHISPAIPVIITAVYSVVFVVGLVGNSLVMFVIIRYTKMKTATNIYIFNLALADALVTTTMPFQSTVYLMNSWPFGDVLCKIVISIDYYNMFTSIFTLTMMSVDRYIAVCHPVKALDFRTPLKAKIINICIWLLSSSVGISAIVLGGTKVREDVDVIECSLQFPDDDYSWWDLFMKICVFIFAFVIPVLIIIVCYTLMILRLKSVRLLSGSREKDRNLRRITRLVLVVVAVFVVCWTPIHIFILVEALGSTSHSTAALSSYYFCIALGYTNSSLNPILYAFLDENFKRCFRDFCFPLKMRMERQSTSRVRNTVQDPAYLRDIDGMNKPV

[17] = biological target: Melanocortin receptor 4 (Homo sapiens, UniProt P32245); assay: MC4R antagonist potency on cAMP, dose response, cell-based, TR-FRET, biased antagonists (AID 602298); type: functional;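 also: antagonist potency against agonist-stimulated cAMP production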
Chain of Melanocortin receptor 4 (P32245 whole entry): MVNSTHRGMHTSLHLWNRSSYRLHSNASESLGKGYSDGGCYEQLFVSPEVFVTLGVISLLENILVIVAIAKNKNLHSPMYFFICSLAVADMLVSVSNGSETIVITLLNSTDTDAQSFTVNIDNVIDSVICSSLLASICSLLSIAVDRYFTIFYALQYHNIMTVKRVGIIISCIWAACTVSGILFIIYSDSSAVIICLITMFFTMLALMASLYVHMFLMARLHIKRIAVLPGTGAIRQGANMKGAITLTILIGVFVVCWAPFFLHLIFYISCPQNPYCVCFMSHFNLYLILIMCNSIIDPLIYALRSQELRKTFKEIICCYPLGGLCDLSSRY

[18] = nonselective inhibitors of cellular cAMP signaling, dose response, counter-screen for MC4R biased antagonist project, cell-based, TR-FRET cAMP detection (AID 602305); type: functional;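 also: U2OS cells stimulated with forskolin near its EC80 as the cAMP inducer; potency is for inhibition of forskolin-stimulated cAMP signaling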
[19] = biological target: Sphingosine 1-phosphate receptor 1 (Homo sapiens, UniProt P21453); type: functional;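 also: Tango beta-arrestin reporter U2OS cells stimulated with S1P near its EC80; inhibitor potency meaning antagonism of receptor activation by the natural agonist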
Chain of Sphingosine 1-phosphate receptor 1 (P21453 whole entry): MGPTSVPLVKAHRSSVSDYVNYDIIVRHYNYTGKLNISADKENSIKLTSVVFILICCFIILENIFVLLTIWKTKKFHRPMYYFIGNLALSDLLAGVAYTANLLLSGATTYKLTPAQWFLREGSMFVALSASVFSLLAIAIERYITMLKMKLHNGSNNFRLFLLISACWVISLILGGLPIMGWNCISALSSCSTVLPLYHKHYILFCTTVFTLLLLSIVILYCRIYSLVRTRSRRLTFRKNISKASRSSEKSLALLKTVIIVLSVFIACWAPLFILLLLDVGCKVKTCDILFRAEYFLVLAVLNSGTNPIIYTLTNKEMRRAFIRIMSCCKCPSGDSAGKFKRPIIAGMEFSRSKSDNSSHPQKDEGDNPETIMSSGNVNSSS

[20] = biological target: T1, Kappa-type opioid receptor; type: functional; remark: listed apart in the source
[21] = biological target: T2, Sphingosine 1-phosphate receptor 4 (Homo sapiens, UniProt O95977); assay: Fluorescence dose response cell-based high throughput screening assay for antagonists of the Sphingosine 1-Phosphate Receptor 4 (S1P4). [Related pubchem assays: 1524 (Confirmation in triplicates.), 1510 (Primary screen.)]; type: functional
T2 sequence (O95977 whole entry): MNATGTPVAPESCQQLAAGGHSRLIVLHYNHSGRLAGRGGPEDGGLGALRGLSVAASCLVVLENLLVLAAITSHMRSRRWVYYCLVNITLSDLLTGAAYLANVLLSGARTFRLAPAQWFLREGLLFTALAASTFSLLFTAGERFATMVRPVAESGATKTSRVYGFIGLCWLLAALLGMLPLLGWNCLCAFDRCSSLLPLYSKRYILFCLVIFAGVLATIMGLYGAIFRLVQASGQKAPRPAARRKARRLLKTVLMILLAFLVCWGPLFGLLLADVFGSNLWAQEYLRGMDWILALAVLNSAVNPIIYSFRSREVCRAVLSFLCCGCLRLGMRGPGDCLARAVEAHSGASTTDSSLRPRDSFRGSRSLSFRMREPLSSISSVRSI

[22] = system: INS1; assay: beta cell apoptosis inhibitors, cytokine rescue, dose response, luminescence, retest (AID 449756); type: functional, cell-based; details: Rattus norvegicus;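 also: cell death triggered by IL-1 beta plus TNF-alpha plus IFN-gamma mixture; protective hits raise ATP signal compared with cytokine alone wells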
[23] = Luminescence Cell-Based Dose Response HTS to Identify Inhibitors of 5'UTR Stem-Loop Driven Prion Protein mRNA Translation in H4 Neuroglioblastoma Cells. [Related pubchem assays: 1827 (Project Summary), 1813 (Primary HTS)]; type: functional
[24] = biological target: T3, Tyrosine-protein phosphatase non-receptor type 7 (Homo sapiens, UniProt P35236); assay: SAR analysis of chemical inhibitors of HePTP using a Fluorescent assay - Set 2. [Related pubchem assays (depositor defined):AID1059, AID1077, AID1661, AID2085, AID521]; type: functional
T3 sequence (P35236 whole entry): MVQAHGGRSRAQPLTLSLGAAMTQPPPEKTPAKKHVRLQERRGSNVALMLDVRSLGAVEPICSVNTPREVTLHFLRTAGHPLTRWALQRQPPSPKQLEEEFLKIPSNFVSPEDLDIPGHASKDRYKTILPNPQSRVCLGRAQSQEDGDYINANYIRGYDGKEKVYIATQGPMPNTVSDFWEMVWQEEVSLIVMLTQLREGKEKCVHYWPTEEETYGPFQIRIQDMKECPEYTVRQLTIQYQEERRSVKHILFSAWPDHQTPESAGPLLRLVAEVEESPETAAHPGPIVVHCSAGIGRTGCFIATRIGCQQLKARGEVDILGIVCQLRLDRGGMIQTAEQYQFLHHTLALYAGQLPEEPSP

[25] = biological target: Dual specificity protein phosphatase 3 (Homo sapiens, UniProt P51452); assay: SAR VHR1 Fluorescent Assay for In Vitro dose response studies Set 2. [Related pubchem assays (depositor defined):AID1654, AID1661, AID1878]; type: functional
Chain of Dual specificity protein phosphatase 3 (P51452 whole entry): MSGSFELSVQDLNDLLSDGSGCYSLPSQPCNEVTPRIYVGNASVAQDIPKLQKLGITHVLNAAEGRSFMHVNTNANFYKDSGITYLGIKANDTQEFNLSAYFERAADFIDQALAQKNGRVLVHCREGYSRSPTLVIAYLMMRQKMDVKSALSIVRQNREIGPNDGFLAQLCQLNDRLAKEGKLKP

In the case of CCOc1ccccc1C(=O)N1CCN(C(c2ccccc2)c2ccccc2)CC1, the IC50 [1] is reported as > 20 µM (inactive), the EC50 [2] is reported as 13 µM (active) and the IC50 [3] is reported as 15.7 µM (active). For the same molecule, the EC50 [4] was 14.3 µM (active), the IC50 [5] was > 20 µM (inactive) and the IC50 [6] was > 20 µM (inactive).
With CCOC(=O)CC(SP(=O)(OC)OC)C(=O)OCC (stereo not drawn) the AC50 [7] was 25.1 µM (inconclusive).
In the case of CC(=O)Nc1ccc(OC(=O)N2CCCCC2)cc1, the EC50 [8] is reported as 3.67 µM (active) and the EC50 [9] is reported as > 50 µM (not active).
With Cn1cnnc1Sc1cc(N2CCN(S(=O)(=O)c3ccc(Cl)c(Cl)c3)CC2)ccc1[N+](=O)[O-] the CC50 [10] was > 50 µM (active) and the IC50 [11] was 10.7 µM (active).
In the case of CCC(=O)N1c2ccccc2[C@@H](N(C(C)=O)c2ccccc2)C[C@H]1C, the IC50 [12] is reported as > 80 µM (inactive).
For COc1ccc(C(=O)/C(=C\c2ccco2)N2C=CC=CC2=C(C#N)C#N)cc1, the EC50 [13] was 0.141 µM (active), the EC50 [14] was 7.21 µM (inconclusive) and the EC50 [15] was > 31.5 µM (inactive). For the same molecule, the IC50 [16] was 18 µM, the IC50 [17] was > 64.6 µM (inactive) and the IC50 [18] was > 64.6 µM (inactive). For the same molecule, the IC50 [19] was 9.37 µM (active), the IC50 [20] was 5.93 µM (active) and the IC50 [21] was 2.01 µM (active). The AC50 [22] was 5.51 µM (active) and the EC50 [23] was 12.3 µM (active).
With NS(=O)(=O)c1ccc(NC(=S)N2CCN(Cc3ccc(Cl)c(Cl)c3)CC2)cc1 the EC50 [13] was > 120 µM (not active), the EC50 [14] was 34.5 µM (active) and the IC50 [24] was 48.4 µM (active). The IC50 [25] was > 100 µM (inactive) and the EC50 [23] was > 120 µM (not active).
